The experiment has as its target Tyrosine-protein kinase BTK (Homo sapiens, UniProt Q06187). Put plainly: TBD: TBD.

Molecules are shown by their SMILES.

A word on the IC50: it is the concentration that gives 50% inhibition.

Tyrosine-protein kinase BTK, sequence (Q06187 whole entry): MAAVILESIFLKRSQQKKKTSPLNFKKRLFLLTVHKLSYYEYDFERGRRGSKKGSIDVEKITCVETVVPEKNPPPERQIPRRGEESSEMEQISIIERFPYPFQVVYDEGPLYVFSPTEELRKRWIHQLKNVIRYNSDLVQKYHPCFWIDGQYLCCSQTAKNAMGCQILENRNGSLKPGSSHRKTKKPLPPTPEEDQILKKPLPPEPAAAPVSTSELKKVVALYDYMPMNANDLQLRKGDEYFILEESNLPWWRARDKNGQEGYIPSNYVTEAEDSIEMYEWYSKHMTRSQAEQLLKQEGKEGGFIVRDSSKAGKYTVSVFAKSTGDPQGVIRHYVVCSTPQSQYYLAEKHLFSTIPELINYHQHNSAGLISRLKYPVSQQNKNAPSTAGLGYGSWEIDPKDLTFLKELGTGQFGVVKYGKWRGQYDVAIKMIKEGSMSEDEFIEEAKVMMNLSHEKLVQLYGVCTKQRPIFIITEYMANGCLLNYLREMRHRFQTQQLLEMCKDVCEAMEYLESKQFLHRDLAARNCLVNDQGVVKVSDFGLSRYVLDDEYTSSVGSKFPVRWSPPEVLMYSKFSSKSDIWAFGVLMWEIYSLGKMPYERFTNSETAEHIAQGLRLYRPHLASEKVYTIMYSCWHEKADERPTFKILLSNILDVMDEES

Consider `C=CC(=O)N1CCC[C@@H](NC(=O)c2sc3nccc4c3c2NC(=O)N4c2ccc(Oc3cccnn3)cc2)C1`, for which the IC50 is over 1 µM. `CN1CC(NC(=O)c2sc3nccc4c3c2NC(=O)N4c2ccc(Oc3ccccc3)cc2)CC1=O` (stereo not drawn) returned an IC50 of 0.398 µM. The molecule `Cc1cc(Oc2ccccc2)ccc1N1C(=O)Nc2c(C(=O)N[C@@H]3CCCOC3)sc3nccc1c23` had an IC50 of 0.0251 µM.
